#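 At the GI50, growth is halved. TGI: concentration producing complete growth inhibition.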
# Tests used:
# Test in all cases: growth of human tumour cells (NCI), 384-well format
# HCT-15 colon = system: HCT-15 colon
# M14 melanoma = system: M14 melanoma
# HL-60(TB) leukemia = system: HL-60(TB) leukemia
# MDA-MB-231 breast = system: MDA-MB-231 breast
# SK-MEL-2 melanoma = system: SK-MEL-2 melanoma
# A498 renal = system: A498 renal
# MDA-MB-468 breast = system: MDA-MB-468 breast
# UACC-257 melanoma = system: UACC-257 melanoma
# A549 NSCLC = system: A549 NSCLC
# COLO 205 colon = system: COLO 205 colon
# LOX IMVI melanoma = system: LOX IMVI melanoma
# T-47D breast = system: T-47D breast
# SNB-75 CNS = system: SNB-75 CNS
# TK-10 renal = system: TK-10 renal
# SK-MEL-5 melanoma = system: SK-MEL-5 melanoma
# NCI-H23 lung = system: NCI-H23 lung
# OVCAR-4 ovarian = system: OVCAR-4 ovarian
# SW-620 colon = system: SW-620 colon
# SF-295 CNS = system: SF-295 CNS
# NCI-H322M lung = system: NCI-H322M lung
# SF-268 CNS = system: SF-268 CNS
# OVCAR-8 ovarian = system: OVCAR-8 ovarian
# MOLT-4 leukemia = system: MOLT-4 leukemia
# HOP-92 NSCLC = system: HOP-92 NSCLC
# DU-145 prostate = system: DU-145 prostate
# NCI/ADR-RES ovarian = system: NCI/ADR-RES ovarian
# SNB-19 CNS = system: SNB-19 CNS
# MCF7 breast = system: MCF7 breast
# NCI-H522 lung = system: NCI-H522 lung
# BT-549 breast = system: BT-549 breast
# PC-3 prostate = system: PC-3 prostate
# 786-0 renal = system: 786-0 renal
# HCC-2998 colon = system: HCC-2998 colon
# NCI-H226 lung = system: NCI-H226 lung
# OVCAR-5 ovarian = system: OVCAR-5 ovarian
# CCRF-CEM leukemia = system: CCRF-CEM leukemia
# KM12 colon = system: KM12 colon
# SR leukemia = system: SR leukemia
# RPMI-8226 leukemia = system: RPMI-8226 leukemia
# UO-31 renal = system: UO-31 renal
# HCT-116 colon = system: HCT-116 colon
# HS 578T breast = system: HS 578T breast
# MDA-MB-435 melanoma = system: MDA-MB-435 melanoma
# HOP-62 NSCLC = system: HOP-62 NSCLC
# SF-539 CNS = system: SF-539 CNS
# IGROV1 ovarian = system: IGROV1 ovarian
# SK-MEL-28 melanoma = system: SK-MEL-28 melanoma
structure (smiles),measurement,setting,value
Cc1cc2c(C(C)C)c(O)c(O)c(C=O)c2c(O)c1-c1c(C)cc2c(C(C)C)c(O)c(O)c(C=O)c2c1O (tested in a mixture with another compound),GI50,HCT-15 colon,1830 nM
same,TGI,HCT-15 colon,3.35 µM
same,GI50,M14 melanoma,1830 nM
same,TGI,M14 melanoma,3.79 µM
same,GI50,HL-60(TB) leukemia,1690 nM
same,TGI,HL-60(TB) leukemia,3.09 µM
same,GI50,MDA-MB-231 breast,1880 nM
same,TGI,MDA-MB-231 breast,4.15 µM
same,GI50,SK-MEL-2 melanoma,1970 nM
same,TGI,SK-MEL-2 melanoma,3.61 µM
same,GI50,A498 renal,2410 nM
same,TGI,A498 renal,9.87 µM
same,GI50,MDA-MB-468 breast,1680 nM
same,TGI,MDA-MB-468 breast,3.29 µM
same,GI50,UACC-257 melanoma,1990 nM
same,TGI,UACC-257 melanoma,3.8 µM
same,GI50,A549 NSCLC,1860 nM
same,TGI,A549 NSCLC,4.5 µM
same,GI50,COLO 205 colon,3.18 µM
same,TGI,COLO 205 colon,9.01 µM
same,GI50,LOX IMVI melanoma,1830 nM
same,TGI,LOX IMVI melanoma,3.42 µM
same,GI50,T-47D breast,1700 nM
same,TGI,T-47D breast,3.41 µM
same,GI50,SNB-75 CNS,2260 nM
same,TGI,SNB-75 CNS,4.37 µM
same,GI50,TK-10 renal,2480 nM
same,TGI,TK-10 renal,6.23 µM
same,GI50,SK-MEL-5 melanoma,1760 nM
same,TGI,SK-MEL-5 melanoma,3.18 µM
same,GI50,NCI-H23 lung,1840 nM
same,TGI,NCI-H23 lung,4.06 µM
same,GI50,OVCAR-4 ovarian,2850 nM
same,TGI,OVCAR-4 ovarian,7.52 µM
same,GI50,SW-620 colon,2070 nM
same,TGI,SW-620 colon,3.98 µM
same,GI50,SF-295 CNS,1210 nM
same,TGI,SF-295 CNS,2710 nM
same,GI50,NCI-H322M lung,1670 nM
same,TGI,NCI-H322M lung,4.14 µM
same,GI50,SF-268 CNS,1660 nM
same,TGI,SF-268 CNS,3.26 µM
same,GI50,OVCAR-8 ovarian,1750 nM
same,TGI,OVCAR-8 ovarian,3.24 µM
same,GI50,MOLT-4 leukemia,765 nM
same,TGI,MOLT-4 leukemia,2010 nM
same,GI50,HOP-92 NSCLC,1780 nM
same,TGI,HOP-92 NSCLC,4 µM
same,GI50,DU-145 prostate,1860 nM
same,TGI,DU-145 prostate,3.47 µM
same,GI50,NCI/ADR-RES ovarian,1830 nM
same,TGI,NCI/ADR-RES ovarian,3.32 µM
same,GI50,SNB-19 CNS,1250 nM
same,TGI,SNB-19 CNS,2920 nM
same,GI50,MCF7 breast,2090 nM
same,TGI,MCF7 breast,4.51 µM
same,GI50,NCI-H522 lung,1860 nM
same,TGI,NCI-H522 lung,4.1 µM
same,GI50,BT-549 breast,1530 nM
same,TGI,BT-549 breast,2940 nM
same,GI50,PC-3 prostate,1670 nM
same,TGI,PC-3 prostate,3.52 µM
same,GI50,786-0 renal,1890 nM
same,TGI,786-0 renal,3.61 µM
same,GI50,HCC-2998 colon,2320 nM
same,TGI,HCC-2998 colon,4.7 µM
same,GI50,NCI-H226 lung,1630 nM
same,TGI,NCI-H226 lung,3.03 µM
same,GI50,OVCAR-5 ovarian,2290 nM
same,TGI,OVCAR-5 ovarian,4.57 µM
same,GI50,CCRF-CEM leukemia,1140 nM
same,TGI,CCRF-CEM leukemia,2380 nM
same,GI50,KM12 colon,1500 nM
same,TGI,KM12 colon,3.1 µM
same,GI50,SR leukemia,1800 nM
same,TGI,SR leukemia,3.21 µM
same,GI50,RPMI-8226 leukemia,1420 nM
same,TGI,RPMI-8226 leukemia,2730 nM
same,GI50,UO-31 renal,2730 nM
same,TGI,UO-31 renal,7.08 µM
same,GI50,HCT-116 colon,1700 nM
same,TGI,HCT-116 colon,3.12 µM
same,GI50,HS 578T breast,1670 nM
same,TGI,HS 578T breast,3.06 µM
same,GI50,MDA-MB-435 melanoma,2420 nM
same,TGI,MDA-MB-435 melanoma,5.17 µM
same,GI50,HOP-62 NSCLC,2240 nM
same,TGI,HOP-62 NSCLC,3.9 µM
same,GI50,SF-539 CNS,1720 nM
same,TGI,SF-539 CNS,3.18 µM
same,GI50,IGROV1 ovarian,1950 nM
same,TGI,IGROV1 ovarian,3.85 µM
same,GI50,SK-MEL-28 melanoma,1590 nM
same,TGI,SK-MEL-28 melanoma,3.13 µM

# Reference: PubChem BioAssay (NCI)
